Data: US20100249383A1, “Novel Ligand Involved In The Transmigration Of Leukocytes Across the Endothelium and Uses Therefor” (The Regents of The University of California and The Burnham …, priority 2001, published 2010)

B1: annexin I: human annexin I, from neutrophil lysates or recombinant full length from E. coli (protein, UniProt P04083 2-346, looked up)
Annexin A1: AMVSEFLKQAWFIENEEQEYVQTVKSSKGGPGSAVSPYPTFNPSSDVAALHKAIMVKGVDEATIIDILTKRNNAQRQQIKAAYLQETGKPLDETLKKALTGHLEEVVLALLKTPAQFDADELRAAMKGLGTDEDTLIEILASRTNKEIRDINRVYREELKRDLAKDITSDTSGDFRNALLSLAKGDRSEDFGVNEDLADSDARALYEAGERRKGTDVNVFNTILTTRSYPQLRRVFQKYTKYSKHDMNKVLDLELKGDIEKCLTAIVKCATSKPAFFAEKLHQAMKGVGTRHKALIRIMVSRSEIDMNDIKAFYQKMYGISLCQAILDETKGDYEKILVALCGGN

Tests used:
[1] = tested on: mAbGB3.1; assay: Inhibition ELISA of mAbGB3.1 binding to bovine lung proteins / immobilized BSA neoglycoproteins; set-up: species or system mouse; settings: for inhibition of mAbGB3.1 binding by glycosaminoglycan-like compounds: at 1 to 5 mM; for inhibition of mAbGB3.1 reactivity by carboxylic acids: low mM concentrations, pH 7.5, FIG. 2 Panel C; for effect on mAbGB3.1 reactivity in the ELISA assay: sulfated or phosphorylated sugars tested at or below 5 mM, data not shown
Method: Binding in the absence of inhibitor was defined as 100%. […] Binding at pH 7.0 was defined as 100% for each. […] Binding in the absence of inhibitor was defined as 100%.
In these ELISAs, 96-well plates were coated with 250 ng of BSA neoglycoproteins at incubated either for 6 h at room temperature, or 4 h at 37° C. Plates were washed and blocked with 3% BSA in PBS overnight, incubated with hybridoma culture supernatants or with purified IgG diluted in PBS containing 1% BSA and 0.05% Tween 20. Incubations were for 1-2 h at room temperature, or overnight at 4° C. The plates were then washed and incubated with alkaline phosphatase conjugated goat anti-mouse IgG, followed by development with p-nitrophenyl phosphate substrate. Absorbance was measured at 405 nm in an ELISA plate reader.
Briefly, 96-well plates were coated with 50 ng of bovine albumin (BSA) neoglycoproteins containing total bovine lung glycopeptides coupled to BSA using glutaraldehyde for 4 h at 37° C. The neoglycoproteins were prepared for immunization screening as described above.
Plates were washed and blocked with 3% BSA in phosphate-buffered saline (PBS) overnight at 4° C. […] The plates were then washed and incubated with alkaline phosphatase conjugated goat anti-mouse IgG, followed by development with p-nitrophenyl phosphate substrate. Absorbance was measured at 405 nm in an ELISA plate reader.

[2] = tested on: 0.3 M asialo-COO^− glycopeptide-BSA neoglycoproteins; assay: ELISA binding of purified proteins to immobilized carboxylated bovine lung glycans; settings: FIG. 19 or data not shown
Method: In additional ELISA experiments, 96-well plates were coated with 0.3 M asialo-COO^− glycopeptide-BSA neoglycoproteins (250 ng/well) for 4 h at 37° C. (control wells had BSA alone) and blocked with 3% BSA in PBS overnight. The wells were then incubated with purified human annexin I or S100A8/A9 complexes (as appropriate), in 10 mM HUES buffer pH 7.5 containing 150 mM NaCl, 5 mM KCl, 1.2 mM MgCl2 and 1.3 mM CaCl2, in the absence or presence of varying concentrations of 0.3 M asialo-COO^− glycopeptides or 0.3 M asialo-CONHMe-glycopeptides for 2 h at room temperature. This was followed by incubation with anti-bovine annexin I antibody or anti-human S100A8 or anti-S100A9 for 2 h at room temperature. Wells were then washed and incubated with alkaline phosphatase conjugated goat anti-mouse IgG, followed by development with p-nitrophenyl phosphate substrate.
In this Example, experiments conducted to assess amphoterin binding to COO^− glycopeptide coated plates was assayed as described earlier for annexin I and S100 proteins. In addition, bound protein was detected using anti-amphoterin. mAbGB3.1 binding to sRAGE was assessed by first coating sRAGE on microtiter wells for 4 h at 37° C. After blocking with 3% BSA in PBS overnight, wells were incubated with mAbGB3.1 in the presence and absence of COO^−or CONHMe-glycopeptide and developed as described above.

[3] = tested on: BSA coupled 0.3 M asialo-COO^− lung glycopeptides; assay: Depletion of annexin I and S100 proteins from human neutrophil lysates by immobilized bovine lung glycopeptides; format: binding; settings: for depletion from neutrophil extracts after binding to the glycopeptides: immunoblot of supernatants, FIG. 15, FIG. 16
Method: In these assays, extracts from activated human neutrophils were first incubated with immobilized asialo-COO^− glycopeptides, and the residual proteins in the supernatants were analyzed by immunoblots. Since the S100A8/A9 complexes are typically destroyed during SDS-PAGE (i.e., break down into monomers), the intensity of staining in immunoblots was beyond the linearity of reaction for any quantitative evaluation.
In these experiments, 96-well plates were coated with 250 ng of BSA coupled 0.3 M asialo-COO^− lung glycopeptides for 4 h at 37° C. and blocked with 3% BSA in PBS overnight. Human neutrophil extracts were sequentially incubated in each of four wells for 30 min/well at 37° C. in leukocyte activation buffer (described above), in presence or absence of 200 μM 0.3 M asialo-COO^− glycopeptides or asialo-CONHMe-glycopeptides. After incubation, the supernatants from the incubation wells were collected and protein depletion was analyzed by immunoblotting using the respective antibodies. For detection of S100A8/A9 complexes, the proteins in the supernatants were stabilized by chemical cross-linking using bis-sulfosuccinimidyl suberate (BS^3) as known in the art (See, Staros, Biochem., 21:3590 [1982]). Briefly, the cross linker was added from a fresh 2 mM stock solution to neutrophil lysates obtained as described above, to a final concentration of 200 μM, and the mixture was incubated at room temperature for 30 min. Reactions were quenched by the addition of 1 M Tris to a final concentration of 10 mM and samples were stored at −80° C., until they were assayed. Cross-linked samples were incubated with 2-mercaptoethanol prior to separation on SDS-PAGE. Since crude lysates were used in the cross-linking, it is conceivable that non-specific cross-linking could occur. Therefore, only the bands that were still strongly stained with increasing dilution of both anti-S100A8 and anti-S100A9 were identified.

[4] = tested on: [2-^3H]mannose-labeled CPAE glycoproteins; assay: Precipitation of mannose-labeled glycoproteins and cross-binding; set-up: species or system bovine; settings: primary binding
Method: Calf pulmonary artery endothelial cells (CPAE) cells were labeled with [2-^3H] mannose at 20 μCi/ml for 24 h in alpha MEM containing 10% fetal bovine serum. Cells were harvested by trypsinization, washed thrice in PBS, and lysed in PBS containing protease inhibitors and 0.5% NP40. Protein-rich lysates were prepared by ultrafiltration on YM10 membranes. Purified S100A8/A9 or annexin I proteins were immobilized on Affigel-10, and mixed with the labeled glycoproteins from CPAE cells in 10 mM HEPES buffer pH 7.5 containing 150 mM NaCl, 5 mM KCl, 1.2 mM MgCl2 and 1.3 mM CaCl2 after preclearing the lysates with BSA-Affigel 10. For immunoprecipitations using mAbGB3.1, lysates were precleared with normal mouse IgG-protein G beads and then incubated with Protein G coupled to mAbGB3.1 IgG in PBS. After overnight incubation at 4° C., the individual pellets were washed free of all unbound label until no more counts appeared in the washes, and the radioactivity associated with the pellets was measured.
For cross-binding, label associated with each pellet was first eluted using high salt (5 M MgCl2, which eluted >70% bound label). The eluates were repeatedly desalted on YM10 membranes and resuspended in the respective buffers. Label eluted from mAbGB3.1 gels was mixed with immobilized S100A8/A9 or annexin I and vice versa. Again, after overnight incubation at 4° C., the individual pellets were washed free of all unbound label and counted. […] In comparison, immobilized annexin I precipitated only about 2-3% of mannose labeled glycoproteins from endothelial cells (data not shown).

Row | Molecule | inhibition of mAbGB3.1 reactivity by carboxylic acids [1] | effect on mAbGB3.1 reactivity in the ELISA assay [1] | further results
1 | N[C@H]1C(O)O[C@H](CO)[C@H](O)[C@@H]1O (stereo partly shown) [Chondrosarnine, chondrosamine] |  |  | inhibition of mAbGB3.1 binding by glycosaminoglycan-like compounds [1]: do not inhibit binding
2 | O=C(O)CN(CCN(CC(=O)O)CC(=O)O)CC(=O)O [EDTA, ethylenediamine tetraacetic acid] | inhibited |  | 
3 | O=C[C@H](O)[C@@H](O)[C@@H](O)[C@H](O)COP(=O)(O)O [Gal-6-phosphate, galactose-6-phosphate] |  | unaffected | 
4 | O=C[C@H](O)[C@@H](O)[C@@H](O)[C@H](O)COS(=O)(=O)O [Gal-6-sulfate, galactose-6-sulfate] |  | unaffected | 
5 | O=P(O)(O)O[C@H]1O[C@H](CO)[C@@H](O)[C@H](O)[C@H]1O [Glc-1-phosphate, glucose-1-phosphate] |  | unaffected | 
6 | O=C[C@H](O)[C@@H](O)[C@H](O)[C@H](O)COP(=O)(O)O [Glc-6-phosphate, glucose-6-phosphate] |  | unaffected | 
7 | O=C[C@H](O)[C@@H](O)[C@H](O)[C@H](O)COS(=O)(=O)O [Glc-6-sulfate, glucose-6-sulfate] |  | unaffected | 
8 | CC(=O)N[C@H]1C(OP(=O)(O)O)O[C@H](CO)[C@@H](O)[C@@H]1O (stereo partly shown) [GlcNAc-1-phosphate, glucose-N-acetyl-1-phosphate] |  | unaffected | 
9 | CC(=O)N[C@H]1C(O)O[C@H](COP(=O)(O)O)[C@@H](O)[C@@H]1O (stereo partly shown) [GlcNAc-6-phosphate, glucose-N-acetyl-6-phosphate] |  | unaffected | 
10 | O=C[C@@H](O)[C@@H](O)[C@H](O)[C@H](O)COP(=O)(O)O [Man-6-phosphate, mannose-6-phosphate] |  | unaffected | 
11 | CC(=O)O [acetate] | inhibited |  | 
12 | O=C(O)CC(O)(CC(=O)O)C(=O)O [citrate] | inhibited |  | 
13 | O=C[C@H](O)[C@@H](O)[C@@H](O)[C@H](O)C(=O)O [galacturonic acid] | did not inhibit binding |  | 
14 | O=C[C@H](O)[C@@H](O)[C@H](O)[C@H](O)C(=O)O [glucuronic acid] | did not inhibit binding |  | 
15 | CC(O)C(=O)O (stereo not shown) [lactic acid] | did not inhibit binding |  | 
16 | CC(=O)C(=O)O [pyruvic acid] | did not inhibit binding |  | 
17 | O=C(O)CCC(=O)O [succinate] | inhibited |  | 
18 | S100A1: other S100 protein |  |  | binding to immobilized carboxylated vs neutralized glycans [2]: remained constant
19 | S100A8 homodimer: cross-linked S100A8 homodimer from human neutrophil extracts |  |  | depletion from neutrophil extracts after binding to the glycopeptides [3]: depleted
20 | S100A8/A9 heterodimer: S100A8•S100A9 heterodimer from human neutrophil extracts |  |  | depletion from neutrophil extracts after binding to the glycopeptides [3]: depleted
21 | S100A8/A9 heterotrimer: (S100A8)2•S100A9 heterotrimer from human neutrophil extracts |  |  | depletion from neutrophil extracts after binding to the glycopeptides [3]: depleted
22 | S100A8: recombinant S100A8 alone |  |  | binding to immobilized carboxylated vs neutralized glycans [2]: does not show specific binding
23 | S100B: other S100 protein |  |  | binding to immobilized carboxylated vs neutralized glycans [2]: remained constant
24 | chondroitin sulfate |  |  | inhibition of mAbGB3.1 binding by glycosaminoglycan-like compounds [1]: do not inhibit binding
25 | hyaluronic acid [hyaluronic acid (tetramer and octamer)] |  |  | inhibition of mAbGB3.1 binding by glycosaminoglycan-like compounds [1]: do not inhibit binding
26 | B1 |  |  | depletion from the neutrophil preparations after binding to carboxylate-enriched glycopeptides ([3]; intact (37 kDa) protein, FIG. 16 lane 2): > 90%; binding to immobilized carboxylated vs neutralized glycans [2]: bound; % Bound Radioactivity (mean ± SD) [4]: 2-3%
